Results taken from patent publication US7531554B2, “4-oxoquinoline compound and use thereof as HIV integrase inhibitor” (Japan Tobacco Inc., priority 2004, dated 2009).
Where a name gives a salt, the structure may show the parent alone.

target: T1, HIV integrase (Human immunodeficiency virus type 1 group M subtype B, UniProt P12497, F1332H); experiment: Determination of enzyme (HIV integrase) inhibitory activity; format: biochemical; conditions: recombinant integrase protein (F185H), donor DNA/target DNA, absorbance at 450 nm
T1 construct: HIV integrase full length gene (J. Virol., 67, 425-437 (1993)) in which phenylalanine at codon 185 was substituted by histidine; made in house; host or cells: Escherichia coli BL21(DE3)
Procedure: HIV integrase full length gene (J. Virol., 67, 425-437 (1993)) in which phenylalanine at codon 185 was substituted by histidine, was inserted between the restriction enzyme NdeI and XhoI sites of plasmid pET21a(+) (Novagen), whereby an integrase expression vector pET21a-IN-F185H was constructed.
Escherichia coli recombinant BL21(DE3) transformed with plasmid pET21a-IN-F185H obtained in (i) was shake cultured at 30° C. in a liquid medium containing ampicillin. When the culture reached the logarithmic growth phase, isopropyl-β-D-thiogalactopyranoside was added to promote expression of integrase gene. The culture was continued for 3 hr to promote accumulation of the integrase protein. The recombinant E. coli was collected in pellets by centrifugal separation and preserved at −80° C.
The E. coli was suspended in Lysis buffer (20 mM HEPES (pH 7.5), 5 mM DTT, 10 mM CHAPS, 10% glycerol) containing 1M sodium chloride and subjected to repeat pressurization and depressurization for rupture, and centrifugal separation at 4° C., 40,000×g, 60 min to recover a water-soluble fraction (supernatant). This was diluted 10-fold with Lysis buffer free of sodium chloride, mixed with SP-Sepharose (Pharmacia Corporation) and stirred at 4° C. for 60 min to allow adsorption of integrase protein to the resin. The resin was washed with Lysis buffer containing 100 mM sodium chloride and the integrase protein was eluted with Lysis buffer containing 1M sodium chloride.
The eluted integrase protein solution was subjected to a Superdex 75 (Pharmacia Corporation) column for gel filtration. The protein was eluted with Lysis buffer containing 1M sodium chloride.
The obtained fractions of the integrase protein were collected and preserved at −80° C.
The following DNA synthesized by Greiner was dissolved in TE buffer (10 mM Tris-hydrochloric acid (pH 8.0), 1 mM EDTA) and mixed with donor DNA, target DNA, and each complementary strand (+ and − strands) to 1 μM. The mixture was heated at 95° C. for 5 min, 80° C. for 10 min, 70° C. for 10 min, 60° C. for 10 min, 50° C. for 10 min and 40° C. for 10 min and kept at 25° C. to give a double stranded DNA, which was used for the test. Donor DNA ([…] attached to the 5′ terminal) Donor + strand: 5′-Biotin-ACCCTTTTAGTCAGTGTGGAAAATCTCTAGCA-3′ (SEQ ID NO:1) Donor − strand: 5′-ACTGCTAGAGATTTTCCACACTGACTAAAAG-3′ (SEQ ID NO:2) Target DNA (+, − strands both having digoxigenin added at 3′ terminal) Target + strand: 5′-TGACCAAGGGCTAATTCACT-Dig-3′ (SEQ ID NO:3) Target − strand: 5′-AGTGAATTAGCCCTTGGTCA-Dig-3′ (SEQ ID NO:4)
The donor DNA was diluted with TE buffer to 10 nM, of which 50 μl was added to each well of streptavidin-coated microtiter plate (Roche) and allowed to adsorb at 37° C. for 60 min. The plate was washed with phosphate buffer (Dulbecco's PBS, Sanko Junyaku Co., Ltd.) containing 0.1% Tween 20 and phosphate buffer. Then, an enzyme reaction mixture (70 μl), a test substance (10 μl) diluted with the reaction mixture and 100 μg/ml integrase protein (10 μl) were added to each well and reacted at 37° C. for 60 min.
Then, 50 nM target DNA (10 μl) was added, reacted at 37° C. for 10 min and washed with phosphate buffer containing 0.1% Tween 20 to stop the reaction.
Then, 100 mU/ml peroxidase labeled anti-digoxigenin antibody solution (Roche, 100 μl) was added, and the mixture was reacted at 37° C. for 60 min, followed by washing with phosphate buffer containing 0.1% Tween 20.
A peroxidase color solution (Bio Rad, 100 μl) was added and allowed to react at room temperature for 4 min. The color reaction was stopped by adding 1N sulfuric acid (100 μl). The absorbance at 450 nm was measured.
The HIV integrase inhibitory activity (IC50) of the compound of the present invention was calculated from the inhibition rate according to the following formula. […]

Compound	IC50 [nM]
CC(C)[C@@H](CO)n1cc(C(=O)O)c(=O)c2cc(Cc3cccc(Cl)c3F)c(OCCO)cc21 [Example 7-3, 6-(3-chloro-2-fluorobenzyl)-7-(2-hydroxyethoxy)-1-((1S)-1-(hydroxymethyl)-2-methylpropyl)-4-oxo-1,4-dihydroquinoline-3-carboxylic acid]	3.5
CC(C)[C@@H](CO)n1cc(C(=O)O)c(=O)c2cc(Cc3cccc(Cl)c3F)c(N3CCN(C)CC3)cc21 [Example 4-10, 6-(3-chloro-2-fluorobenzyl)-1-((1S)-1-(hydroxymethyl)-2-methylpropyl)-7-(4-methylpiperazin-1-yl)-4-oxo-1,4-dihydroquinoline-3-carboxylic acid]	6.2
CNS(=O)(=O)COc1cc2c(cc1Cc1cccc(Cl)c1F)c(=O)c(C(=O)O)cn2[C@H](CO)C(C)C [Example 4-3, 6-(3-chloro-2-fluorobenzyl)-1-((1S)-1-(hydroxymethyl)-2-methylpropyl)-7-((methylamino)sulfonylmethoxy)-4-oxo-1,4-dihydroquinoline-3-carboxylic acid]	4.7
CC(C)[C@@H](CO)n1cc(C(=O)O)c(=O)c2cc(Cc3cccc(Cl)c3F)c(O[C@@H]3CCN(C)C3)cc21 [Example 4-55, 6-(3-chloro-2-fluorobenzyl)-1-((1S)-1-(hydroxymethyl)-2-methylpropyl)-7-((3R)-1-methylpyrrolidin-3-yloxy)-4-oxo-1,4-dihydroquinoline-3-carboxylic acid trifluoroacetate]	7.6
CC(C)[C@@H](CO)n1cc(C(=O)O)c(=O)c2cc(Cc3cccc(Cl)c3F)c(N3CCC(O)CC3)cc21 [Example 4-21, 6-(3-chloro-2-fluorobenzyl)-1-((1S)-1-(hydroxymethyl)-2-methylpropyl)-7-(4-hydroxypiperidin-1-yl)-4-oxo-1,4-dihydroquinoline-3-carboxylic acid]	6.6
CC(C)[C@@H](CO)n1cc(C(=O)O)c(=O)c2cc(Cc3cccc(Cl)c3F)c(OCCN3CCOCC3)cc21 [Example 4-16, 6-(3-chloro-2-fluorobenzyl)-1-((1S)-1-(hydroxymethyl)-2-methylpropyl)-7-(2-(morpholin-4-yl)ethoxy)-4-oxo-1,4-dihydroquinoline-3-carboxylic acid]	7.9
CC(C)[C@@H](CO)n1cc(C(=O)O)c(=O)c2cc(Cc3cccc(Cl)c3F)c(OCc3ccc(C(N)=O)cc3)cc21 [Example 4-58, 7-(4-(aminocarbonyl)benzyloxy)-6-(3-chloro-2-fluorobenzyl)-1-((1S)-1-(hydroxymethyl)-2-methylpropyl)-4-oxo-1,4-dihydroquinoline-3-carboxylic acid]	4.7
CC(C)[C@@H](CO)n1cc(C(=O)O)c(=O)c2cc(Cc3cccc(Cl)c3F)c(N3CC[C@@H](N)C3)cc21 [Example 4-39, 7-((3R)-3-aminopyrrolidin-1-yl)-6-(3-chloro-2-fluorobenzyl)-1-((1S)-1-(hydroxymethyl)-2-methylpropyl)-4-oxo-1,4-dihydroquinoline-3-carboxylic acid]	9.4
COc1cc2c(cc1Cc1ccc(F)cc1C(F)(F)F)c(=O)c(C(=O)O)cn2[C@H](CO)C(C)C [Example 1-10, 6-(4-fluoro-2-(trifluoromethyl)benzyl)-1-((1S)-1-(hydroxymethyl)-2-methylpropyl)-7-methoxy-4-oxo-1,4-dihydroquinoline-3-carboxylic acid]	280
COc1cc2c(cc1Cc1cc(O)cc(Cl)c1F)c(=O)c(C(=O)O)cn2[C@H](CO)C(C)C [Example 1-6, 6-(3-chloro-2-fluoro-5-hydroxybenzyl)-1-((1S)-1-(hydroxymethyl)-2-methylpropyl)-7-methoxy-4-oxo-1,4-dihydroquinoline-3-carboxylic acid]	4.6
CC(C)[C@@H](CO)n1cc(C(=O)O)c(=O)c2cc(Cc3cccc(Cl)c3F)c(OCC(=O)O)cc21 [Example 4-50, 7-(carboxymethoxy)-6-(3-chloro-2-fluorobenzyl)-1-((1S)-1-(hydroxymethyl)-2-methylpropyl)-4-oxo-1,4-dihydroquinoline-3-carboxylic acid]	5.3
